≈ marks a conversion by molar mass, not a printed value. Blank lines part the entries; values can stand above or below the molecule they belong to.
What was measured:
E. coli BW25113 = experiment: Neutropenic thigh infection, E. coli BW25113; format: in vivo, BALB/c mice; details: Study TI-2014-008, BW25113, 100mg/kg per oral
E. coli ∆acrB JW0451-2 = experiment: Neutropenic thigh infection, E. coli ∆acrB; format: in vivo, BALB/c mice
ATCC25922 = experiment: MIC on E. coli ATCC25922; format: cell-based; details: strain ATCC25922
Experimental: The inoculum used for all the experiments is derived from a single seed lot that is maintained as glycerol stocks at −80 °C and are sub cultured on LB plate for isolated colonies. Single colony of each strain is grown in M9 medium. All test compound stocks and dilutions are prepared in DMSO. Serial two-fold dilutions of compounds are prepared separately, with the concentrations ranging from 2 mg/mL to 0.015 mg/mL. To 150 µl (3–7 × 10^5 CFU/ml) of bacterial culture in 96 well microtitre plates, 3 μL compound from each of the dilutions is added to respective wells to obtain final concentrations ranging from 40 µg/mL to 0.3 µg/mL of the test compounds. Media control, culture control and appropriate reference drug controls are included. […] Growth is monitored by checking absorbance at 600 nm (A600). […] The samples from MIC and above concentrations are plated for MBC (Minimum Bactericidal Concentration). The samples are diluted 1:10 and plated on LB agar plates. […] The killing kinetics is determined by enumerating survivors at various time points following compound exposure. E. coli cells (~10^7 CFU/ml; A600 of 0.1) are treated with various concentrations (40 µg/mL to 0.3 µg/mL) of compounds in a 96-well microtitre plate. At various time intervals (0 to 8 h), 30 μl volumes of treated cultures are serially diluted and plated on LB agar plates. […] Data is expressed as the log10 CFU for each drug treatment.

[1] = system: E. coli clinical isolates; experiment: MIC on panel of E. coli clinical isolates; format: cell-based

Structure (SMILES): O=C(O)c1cn(C2CC2)c2cc(N3CCNCC3)c(F)cc2c1=O [ciprofloxacin, reference compound]
Log10CFU Mean Diff. vs. Untreated Controls (E. coli BW25113): 3.212 Log10CFU
Log10CFU Mean Diff. vs. Untreated Controls (E. coli ∆acrB JW0451-2; Study TI-2014-007, ∆acrB JW0451-2, 100mg/kg per oral, 6 hours post treatment): 3.477 Log10CFU
Log10CFU Mean Diff. vs. Untreated Controls (E. coli ∆acrB JW0451-2; Study TI-2014-008, ∆acrB JW0451-2, 100mg/kg per oral): 3.098 Log10CFU

MIC (ATCC25922): 0.06 µg/mL (≈ 0.156 µM)
MIC Range ([1]; 75 E.coli clinical isolates): 0.03 to 8 µg/mL
MIC50 ([1]; Escherichia coli, 75 E.coli clinical isolates, 50% clinical isolates): 0.06 µg/mL (≈ 0.156 µM)
MIC90 ([1]; Escherichia coli, 75 E.coli clinical isolates, 90% clinical isolates): 8 µg/mL (≈ 20.9 µM)
MIC ([1]; strain SEC001): > 4 µg/mL
MIC ([1]; strain SEC002): 0.13 µg/mL (≈ 0.339 µM)
MIC ([1]; strain SEC003): > 4 µg/mL
MIC ([1]; strain SEC004): > 4 µg/mL
MIC ([1]; strain SEC005): 0.06 µg/mL (≈ 0.156 µM)
MIC ([1]; strain SEC006): 0.03 µg/mL (≈ 0.0782 µM)
MIC ([1]; strain SEC007): 0.03 µg/mL (≈ 0.0782 µM)
MIC ([1]; strain SEC008): 0.13 µg/mL (≈ 0.339 µM)
MIC ([1]; strain SEC011): 0.06 µg/mL (≈ 0.156 µM)
MIC ([1]; strain SEC012): 0.06 µg/mL (≈ 0.156 µM)
MIC ([1]; strain SEC013): 0.06 µg/mL (≈ 0.156 µM)
MIC ([1]; strain SEC014): 0.06 µg/mL (≈ 0.156 µM)
MIC ([1]; strain SEC015): > 4 µg/mL
MIC ([1]; strain SEC016): 0.03 µg/mL (≈ 0.0782 µM)
MIC ([1]; strain SEC017): 0.06 µg/mL (≈ 0.156 µM)
MIC ([1]; strain SEC018): 0.06 µg/mL (≈ 0.156 µM)
MIC ([1]; strain SEC019): 0.06 µg/mL (≈ 0.156 µM)
MIC ([1]; strain SEC020): > 4 µg/mL
MIC ([1]; strain SEC021): 0.03 µg/mL (≈ 0.0782 µM)
MIC ([1]; strain SEC022): 0.03 µg/mL (≈ 0.0782 µM)
MIC ([1]; strain SEC023): 0.25 µg/mL (≈ 0.652 µM)
MIC ([1]; strain SEC024): 0.25 µg/mL (≈ 0.652 µM)
MIC ([1]; strain SEC025): 0.25 µg/mL (≈ 0.652 µM)
MIC ([1]; strain SEC026): 0.13 µg/mL (≈ 0.339 µM)
MIC ([1]; strain SEC028): 0.03 µg/mL (≈ 0.0782 µM)
MIC ([1]; strain SEC029): 0.06 µg/mL (≈ 0.156 µM)
MIC ([1]; strain SEC031): 0.06 µg/mL (≈ 0.156 µM)
MIC ([1]; strain SEC032): 0.03 µg/mL (≈ 0.0782 µM)
MIC ([1]; strain SEC033): 0.03 µg/mL (≈ 0.0782 µM)
MIC ([1]; strain SEC034): 0.03 µg/mL (≈ 0.0782 µM)
MIC ([1]; strain SEC035): 0.5 µg/mL (≈ 1.3 µM)
MIC ([1]; strain SEC036): 0.06 µg/mL (≈ 0.156 µM)
MIC ([1]; strain SEC037): 0.03 µg/mL (≈ 0.0782 µM)
MIC ([1]; strain SEC038): 0.06 µg/mL (≈ 0.156 µM)
MIC ([1]; strain SEC039): 0.03 µg/mL (≈ 0.0782 µM)
MIC ([1]; strain SEC040): 0.06 µg/mL (≈ 0.156 µM)
MIC ([1]; strain SEC041): > 4 µg/mL
MIC ([1]; strain SEC042): 2 µg/mL (≈ 5.22 µM)
MIC ([1]; strain SEC043): 0.06 µg/mL (≈ 0.156 µM)
MIC ([1]; strain SEC044): 0.13 µg/mL (≈ 0.339 µM)
MIC ([1]; strain SEC045): 0.06 µg/mL (≈ 0.156 µM)
MIC ([1]; strain SEC046): 0.03 µg/mL (≈ 0.0782 µM)
MIC ([1]; strain SEC047): 0.06 µg/mL (≈ 0.156 µM)
MIC ([1]; strain SEC048): 0.25 µg/mL (≈ 0.652 µM)
MIC ([1]; strain SEC049): 0.5 µg/mL (≈ 1.3 µM)
MIC ([1]; strain SEC050): 0.03 µg/mL (≈ 0.0782 µM)
MIC ([1]; strain SEC051): 0.03 µg/mL (≈ 0.0782 µM)
MIC ([1]; strain SEC052): 1 µg/mL (≈ 2.61 µM)
MIC ([1]; strain SEC053): 1 µg/mL (≈ 2.61 µM)
MIC ([1]; strain SEC054): 0.03 µg/mL (≈ 0.0782 µM)
MIC ([1]; strain SEC055): 0.06 µg/mL (≈ 0.156 µM)
MIC ([1]; strain SEC057): 0.13 µg/mL (≈ 0.339 µM)
MIC ([1]; strain SEC058): 0.06 µg/mL (≈ 0.156 µM)
MIC ([1]; strain SEC059): 0.06 µg/mL (≈ 0.156 µM)
MIC ([1]; strain SEC060): 0.06 µg/mL (≈ 0.156 µM)
MIC ([1]; strain SEC061): 0.03 µg/mL (≈ 0.0782 µM)
MIC ([1]; strain SEC062): 0.03 µg/mL (≈ 0.0782 µM)
MIC ([1]; strain SEC063): > 4 µg/mL
MIC ([1]; strain SEC064): 0.06 µg/mL (≈ 0.156 µM)
MIC ([1]; strain SEC065): 0.03 µg/mL (≈ 0.0782 µM)
MIC ([1]; strain SEC067): 0.06 µg/mL (≈ 0.156 µM)
MIC ([1]; strain SEC068): > 4 µg/mL
MIC ([1]; strain SEC069): 2 µg/mL (≈ 5.22 µM)
MIC ([1]; strain SEC070): 0.03 µg/mL (≈ 0.0782 µM)
MIC ([1]; strain SEC071): 0.03 µg/mL (≈ 0.0782 µM)
MIC ([1]; strain SEC072): 0.06 µg/mL (≈ 0.156 µM)
MIC ([1]; strain SEC073): 0.13 µg/mL (≈ 0.339 µM)
MIC ([1]; strain SEC074): 0.06 µg/mL (≈ 0.156 µM)
MIC ([1]; strain SEC075): 0.13 µg/mL (≈ 0.339 µM)
MIC ([1]; strain SEC076): 0.06 µg/mL (≈ 0.156 µM)
MIC ([1]; strain SEC077): 0.5 µg/mL (≈ 1.3 µM)
MIC ([1]; strain SEC078): > 4 µg/mL
MIC ([1]; strain SEC079): 0.06 µg/mL (≈ 0.156 µM)
MIC ([1]; strain SEC080): 0.03 µg/mL (≈ 0.0782 µM)
Structure (SMILES): C[C@@H](O)[C@H]1C(=O)N2C(C(=O)O)=C(S[C@@H]3CN[C@H](C(=O)N(C)C)C3)[C@H](C)[C@H]12 [meropenem, reference compound]

From publication PMC5940854, “Nitrothiophene carboxamides, a novel narrow spectrum antibacterial series: Mechanism of action and Efficacy” (Scientific Reports, 2018)
